Measurements published in patent publication US12552783B2, “Modulators of proteolysis and associated methods of use” (Arvinas Operations, Inc., priority 2018, dated 2026).

Assays:
Format in all cases: cell-based
KRas [1] = biological target: T1, KRas (Homo sapiens, UniProt P01116, G12C); test: KRas degradation in H2030 cells by Western blot (data of Table 5); set-up: host or cells: NCI-H2030; settings: H2030 cells serum starved 24 hours, KRas immunoblot
Method: Cell Lines, Antibodies, and Reagents. NCI-H2030 (CRL-5914) and SW1573 (CRL-2170) cells were purchased from ATCC. Both cell lines are homozygous for the G12C mutation in KRas. NCI-H2030 cells were cultured in RPMI-1640 medium containing 1% penicillin-streptomycin and 10% fetal bovine serum (FBS). SW1573 cells were cultured in DMEM containing 1% penicillin-streptomycin and 10% FBS. The KRas detection antibody (Cat. No. LS-C175665) was purchased from LifeSpan Biosciences and was used at a dilution of 1:2000. GAPDH was detected using an antibody purchased from Cell Signaling Technology (Cat. No. 5174) and was diluted 1:3000. Secondary anti-mouse and anti-rabbit detection antibodies were purchased from Cell Signaling Technology (Cat. Nos. 7076 and 7074, respectively).
Compound Treatment and Western Blotting of the Data of Table 5. H2030 cells in 12-well plates were serum starved for 24 hours, and then treated with 0.3 uM, 1 uM, and 3 uM of the indicated bifunctional compound, for 24 hours. Cells were lysed in a Cell Signaling Technology Cell Lysis Buffer (Cat. No. #9803) supplemented with protease inhibitors, and proteins were separated by SDS-PAGE. KRas was detected by immunoblotting using the LSBio antibody (Cat. No. LS-C175665).
DC50 is the half-maximal degradation concentration—i.e., the concentration at which 50% degradation is observed. DMax is the maximum degradation efficacy is achieved—i.e., the maximal degradation observed) degradation data.

KRas [2] = biological target: T1, KRas; test: KRas degradation in NCI-H2030 cells by Western blot, normalized to GAPDH (data of Table 14); set-up: host or cells: NCI-H2030; settings: for Dmax: NCI-H2030
Summary of the method: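 Readout: GAPDH-normalized KRas immunoblot signal, expressed as percent degradation versus 0.1% DMSO vehicle. Treatment: 0.3, 1, 3 μM after 24 h starvation; 24 h (VHL-based) or 72 h (others).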

KRas [3] = biological target: T1, KRas; test: KRas degradation in SW1573 cells by Western blot, normalized to GAPDH (data of Table 14)
Summary of the method: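 SW1573 cells, homozygous for the KRas G12C mutation and maintained in DMEM with 10% FBS and 1% penicillin-streptomycin, were seeded in 12-well plates, allowed to attach overnight at 37° C. under 5% CO2, then serum-starved for 24 hours before compound exposure. KRas levels were measured by Western blot, normalized to GAPDH, and compared with DMSO controls to give percent degradation, DC50 and Dmax.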

Compound	Percent Degradation at Indicated Concentration (μM) (KRas [2]; H2030 cells, 0.3 μM)	Percent Degradation at Indicated Concentration (μM) (KRas [2]; H2030 cells, 1 μM)	Percent Degradation at Indicated Concentration (μM) (KRas [2]; H2030 cells, 3 μM)	Dmax (KRas [2]; H2030 cells) [%]	DC50 (KRas [3]; SW1573 cells) [µM]	Dmax (KRas [3]; SW1573 cells) [%]	Percent Degradation at Indicated Concentration (μM) (KRas [3]; SW1573 cells, 0.01 μM)	Percent Degradation at Indicated Concentration (μM) (KRas [3]; SW1573 cells, 0.03 μM)	Percent Degradation at Indicated Concentration (μM) (KRas [3]; SW1573 cells, 0.1 μM)	Percent Degradation at Indicated Concentration (μM) (KRas [3]; SW1573 cells, 0.3 μM)	Percent Degradation at Indicated Concentration (μM) (KRas [3]; SW1573 cells, 1 μM)	DC50 (KRas [2]; H2030) [µM]	Percent Degradation at Indicated Concentration (μM) (KRas [2]; H2030, 0.03 μM)	Percent Degradation at Indicated Concentration (μM) (KRas [2]; H2030, 0.1 μM)	Percent Degradation at Indicated Concentration (μM) (KRas [2]; H2030, 0.3 μM)	Percent Degradation at Indicated Concentration (μM) (KRas [2]; H2030, 1 μM)	Percent Degradation at Indicated Concentration (μM) (KRas [2]; H2030, 3 μM)	Dmax (KRas [2]) [%]	DC50 (KRas [3]; SW1573) [µM]	Dmax (KRas [3]; SW1573) [%]	also measured
C=CC(=O)N1CCN(c2nc(NCCC(=O)N(C)CCOCCOCCOCCNc3cccc4c3C(=O)N(C3CCC(=O)NC3=O)C4=O)nc3c(F)c(-c4cc(O)cc5ccccc45)c(Cl)cc23)CC1 (stereo not shown) [compound 3, 3-((4-(4-acryloylpiperazin-1-yl)-6-chloro-8-fluoro-7-(3-hydroxynaphthalen-1-yl)quinazolin-2-yl)amino)-N-(2-(2-(2-(2-((2-(2,6-dioxopiperidin-3-yl)-1,3-dioxoisoindolin-4-yl)amino)ethoxy)ethoxy)ethoxy)ethyl)-N-methylpropanamide]																					H2030 Degradation at 0.3 uM (KRas [1]; treated 24 hours with 0.3 uM): C (C < 25); H2030 Degradation at 1 uM (KRas [1]; treated 24 hours with 1 uM): B (25 ≤ B < 50); H2030 Degradation at 3 uM (KRas [1]; treated 24 hours with 3 uM): B (25 ≤ B < 50)
C=CC(=O)N1CCN(c2nc(O[C@H](C)CN3CCC(OCCOCC(=O)N[C@H](C(=O)N4C[C@H](O)C[C@H]4C(=O)N[C@@H](C)c4ccc(-c5scnc5C)cc4)C(C)(C)C)CC3)nc3c(F)c(-c4cc(O)cc5ccccc45)c(Cl)cc23)CC1 [compound 398, (2S,4R)-1-((2S)-2-(2-(2-((1-((2R)-2-((4-(4-acryloylpiperazin-1-yl)-6-chloro-8-fluoro-7-(3-hydroxynaphthalen-1-yl)quinazolin-2-yl)oxy)propyl)piperidin-4-yl)oxy)ethoxy)acetamido)-3,3-dimethylbutanoyl)-4-hydroxy-N-((S)-1-(4-(4-methylthiazol-5-yl)phenyl)ethyl)pyrrolidine-2-carboxamide]	C (Percent Degradation: C ≤ 35)	C (Percent Degradation: C ≤ 35)	C (Percent Degradation: C ≤ 35)	≤ 35	< 0.1	35 to 70	C (Percent Degradation: C ≤ 35)	B (35 < B < 70)	B (35 < B < 70)	B (35 < B < 70)	C (Percent Degradation: C ≤ 35)										
C=CC(=O)N1CCN(c2nc(NCCC(=O)N(C)CCOCCOCCOCCOCC(=O)N[C@H](C(=O)N3C[C@H](O)C[C@H]3C(=O)N[C@@H](C)c3ccc(-c4scnc4C)cc3)C(C)(C)C)nc3c(F)c(-c4cc(O)cc5ccccc45)c(Cl)cc23)CC1 (racemic) [compound 196, (2RS,4SR)-1-((RS)-21-((4-(4-acryloylpiperazin-1-yl)-6-chloro-8-fluoro-7-((SR)-3-hydroxynaphthalen-1-yl)quinazolin-2-yl)amino)-2-(tert-butyl)-18-methyl-4,19-dioxo-6,9,12,15-tetraoxa-3,18-diazahenicosanoyl)-4-hydroxy-N-((RS)-1-(4-(4-methylthiazol-5-yl)phenyl)ethyl)pyrrolidine-2-carboxamide]												≥ 1	C (Percent Degradation: C ≤ 35)	C (Percent Degradation: C ≤ 35)	C (Percent Degradation: C ≤ 35)	C (Percent Degradation: C ≤ 35)	C (Percent Degradation: C ≤ 35)	≤ 35	≥ 1	≤ 35	Percent Degradation at Indicated Concentration (μM) (KRas [3]; SW1573, 0.03 μM): C (Percent Degradation: C ≤ 35); Percent Degradation at Indicated Concentration (μM) (KRas [3]; SW1573, 0.1 μM): C (Percent Degradation: C ≤ 35); Percent Degradation at Indicated Concentration (μM) (KRas [3]; SW1573, 0.3 μM): C (Percent Degradation: C ≤ 35); Percent Degradation at Indicated Concentration (μM) (KRas [3]; SW1573, 1 μM): C (Percent Degradation: C ≤ 35); Percent Degradation at Indicated Concentration (μM) (KRas [3]; SW1573, 3 μM): C (Percent Degradation: C ≤ 35)
C=CC(=O)N1CCN(c2nc(OCCN(C)CCOCCOCCOCCOCC(=O)N[C@H](C(=O)N3C[C@H](O)C[C@H]3C(=O)N[C@@H](C)c3ccc(-c4scnc4C)cc3)C(C)(C)C)nc3c(F)c(-c4cc(O)cc5ccccc45)c(Cl)cc23)CC1 [compound 473, (2S,4R)-1-((2S)-20-((4-(4-acryloylpiperazin-1-yl)-6-chloro-8-fluoro-7-(3-hydroxynaphthalen-1-yl)quinazolin-2-yl)oxy)-2-(tert-butyl)-18-methyl-4-oxo-6,9,12,15-tetraoxa-3,18-diazaicosanoyl)-4-hydroxy-N-((S)-1-(4-(4-methylthiazol-5-yl)phenyl)ethyl)pyrrolidine-2-carboxamide]												0.1 to 1	C (Percent Degradation: C ≤ 35)	C (Percent Degradation: C ≤ 35)	C (Percent Degradation: C ≤ 35)	C (Percent Degradation: C ≤ 35)	C (Percent Degradation: C ≤ 35)	≤ 35	0.1 to 1	35 to 70	Percent Degradation at Indicated Concentration (μM) (KRas [2]; H2030, 10 μM): C (Percent Degradation: C ≤ 35); Percent Degradation at Indicated Concentration (μM) (KRas [3]; SW1573, 0.03 μM): C (Percent Degradation: C ≤ 35); Percent Degradation at Indicated Concentration (μM) (KRas [3]; SW1573, 0.1 μM): C (Percent Degradation: C ≤ 35); Percent Degradation at Indicated Concentration (μM) (KRas [3]; SW1573, 0.3 μM): B (35 < B < 70); Percent Degradation at Indicated Concentration (μM) (KRas [3]; SW1573, 1 μM): B (35 < B < 70); Percent Degradation at Indicated Concentration (μM) (KRas [3]; SW1573, 3 μM): B (35 < B < 70); Percent Degradation at Indicated Concentration (μM) (KRas [3]; SW1573, 10 μM): B (35 < B < 70)
C=CC(=O)N1CCN(c2nc(O[C@H](C)CN3CCC(OCCOCCOCCOCC(=O)N[C@H](C(=O)N4C[C@H](O)C[C@H]4C(=O)N[C@@H](C)c4ccc(-c5scnc5C)cc4)C(C)(C)C)CC3)nc3c(F)c(-c4cc(O)cc5ccccc45)c(Cl)cc23)CC1 [compound 400, (2S ,4R)-1-((2S)-14-((1-((2R)-2-((4-(4-acryloylpiperazin-1-yl)-6-chloro-8-fluoro-7-(3-hydroxynaphthalen-1-yl)quinazolin-2-yl)oxy)propyl)piperidin-4-yl)oxy)-2-(tert-butyl)-4-oxo-6,9,12-trioxa-3-azatetradecanoyl)-4-hydroxy-N-((S)-1-(4-(4-methylthiazo1-5-yl)phenyl)ethyl)pyrrolidine-2-carboxamide]	C (Percent Degradation: C ≤ 35)	C (Percent Degradation: C ≤ 35)	C (Percent Degradation: C ≤ 35)	≤ 35	≥ 1	≤ 35	C (Percent Degradation: C ≤ 35)	C (Percent Degradation: C ≤ 35)	C (Percent Degradation: C ≤ 35)	C (Percent Degradation: C ≤ 35)	C (Percent Degradation: C ≤ 35)										
